Reference: patent US9834558B2, “Substituted bridged urea analogs as sirtuin modulators” (GLAXOSMITHKLINE LLC, priority 2013, dated 2017)
Like-named read-outs stand apart in the source and are kept apart here.

Target: T1, SIRT1 (Homo sapiens, UniProt Q96EB6)
T1 sequence (Q96EB6 1-747): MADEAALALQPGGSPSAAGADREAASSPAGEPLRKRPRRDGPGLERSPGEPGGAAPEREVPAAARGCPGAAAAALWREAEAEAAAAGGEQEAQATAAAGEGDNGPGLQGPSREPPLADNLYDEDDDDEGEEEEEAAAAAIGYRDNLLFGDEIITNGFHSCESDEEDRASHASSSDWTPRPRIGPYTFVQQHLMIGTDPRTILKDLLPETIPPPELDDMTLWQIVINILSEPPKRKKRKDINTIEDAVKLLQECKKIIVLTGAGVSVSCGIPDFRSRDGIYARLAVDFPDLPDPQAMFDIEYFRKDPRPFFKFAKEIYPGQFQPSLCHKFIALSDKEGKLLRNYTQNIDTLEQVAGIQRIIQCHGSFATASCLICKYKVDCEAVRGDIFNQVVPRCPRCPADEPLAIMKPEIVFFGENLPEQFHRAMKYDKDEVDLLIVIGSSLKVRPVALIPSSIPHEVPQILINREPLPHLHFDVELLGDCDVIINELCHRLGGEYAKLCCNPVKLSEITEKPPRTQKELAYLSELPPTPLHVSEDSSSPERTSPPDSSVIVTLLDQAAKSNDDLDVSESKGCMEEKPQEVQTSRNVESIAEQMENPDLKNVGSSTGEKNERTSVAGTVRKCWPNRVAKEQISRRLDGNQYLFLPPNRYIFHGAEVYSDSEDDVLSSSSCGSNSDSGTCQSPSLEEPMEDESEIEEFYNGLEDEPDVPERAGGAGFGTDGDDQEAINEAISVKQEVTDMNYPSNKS
Assay: Trp mass spectrometry assay of SIRT1 activation
Assay type: biochemical
Settings: for TRP Activity (EC1.5): EC1.5 = concentration that results in 150% activation of SIRT1
Summary of the method: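 N-terminal His-tagged human SIRT1 (10 nM, E. coli BL21(DE3)) with 0.5 μM Ac-RHKK(Ac)W-NH2 peptide and 120 μM βNAD+, 25 min at 25 °C in HEPES pH 7.5, formic acid stop. OAADPR or deacetylated peptide quantified by mass spectrometry; EC1.5 (50% activity increase over control) and Percent Maximum Activation reported.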

[1] = Trp mass spectrometry assay, concentration of test compound giving 150% activation of SIRT1
[2] = Trp peptide assay, maximum activity relative to control (100%), read-out: TRP MAX RESP (percent maximum fold activation)
[3] = concentration giving 150% activation of SIRT1, Trp peptide substrate
[4] = Trp mass spectrometry assay, EC1.5 = concentration of test compound that results in 150% activation of SIRT1
[5] = Trp mass spectrometry assay, percent maximum fold activation of SIRT1, read-out: Tryp % Fold Act
[6] = Trp peptide substrate, concentration giving 150% activation of SIRT1

Row | SMILES | TRP Activity (EC1.5) (Trp peptide assay) | Emax [2] [%] | further results
1 | O=C(Nc1ccncc1)N1c2nc(-c3cccc(Cl)c3)ccc2N2CCC[C@H]1C2 [Example 409] | – | – | Tryp AVG EC1.5 (μM) [1]: A (A (EC1.5<1 μM))
2 | O=C(Nc1cccc(-c2cnco2)n1)N1c2nc(-c3cncc(C(F)(F)F)c3)ccc2N2C[C@@H](O)[C@H]1C2 [Example 703] | – | – | Tryp AVG EC1.5 (μM) [3]: A (A (EC1.5<1 μM))
3 | O=C(CCCC[C@@H]1SC[C@@H]2NC(=O)N[C@@H]21)NCCCCCC(=O)NCc1cn(-c2cccc(NC(=O)N3c4nc(-c5cccc(C(F)(F)F)c5)ccc4N4CC[C@H]3C4)c2)nn1 [Example 607] | – | – | Tryp AVG EC1.5 (μM) [4]: A (A (EC1.5<1 μM)); Emax [5]: > 150%
4 | O=C(Nc1nc2ccccc2s1)N1c2nc(-c3cccc(C(F)(F)F)c3)ccc2N2CC[C@H]1C2 [Example 90] | – | – | Tryp AVG EC1.5 (μM) [6]: A (A (EC1.5<1 μM))
5 | CC(C)(C)OC(=O)NCc1cnnn1-c1cccc(NC(=O)N2c3nc(-c4cccc(C(F)(F)F)c4)ccc3N3CC[C@H]2C3)c1 [Example 638] | – | – | Tryp AVG EC1.5 (μM) [3]: A (A (EC1.5<1 μM))
6 | O=C(Nc1cnccn1)N1c2nc(-c3cc(C(F)(F)F)cc(C(F)(F)F)c3)ccc2N2CC[C@H]1C2 [Example 363] | – | – | Tryp AVG EC1.5 (μM) [1]: B (B (EC1.5 1-25 μM)); Emax [5]: > 150%
7 | O=C(NCCCN1CCOCC1)N1c2nc(-c3cccc(C(F)(F)F)c3)ccc2N2CC[C@H]1C2 [Example 612] | – | – | Tryp AVG EC1.5 (μM) [4]: B (B (EC1.5 1-25 μM))
8 | CC(C)(C)OC(=O)NCCCc1ccc(NC(=O)N2c3nc(-c4cccc(C(F)(F)F)c4)ccc3N3CC[C@H]2C3)cc1-c1cnco1 [Example 750] | – | – | Tryp AVG EC1.5 (μM) [3]: A (A (EC1.5<1 μM))
9 | CC(C)(C)OC(=O)N1CCCc2ccc(NC(=O)N3c4nc(-c5cccc(C(F)(F)F)c5)ccc4N4CC[C@H]3C4)cc21 [Example 610] | – | – | Tryp AVG EC1.5 (μM) [4]: B (B (EC1.5 1-25 μM))
10 | O=C(Nc1ccccn1)N1c2nc(-c3cccc(C(F)(F)F)c3)ccc2N2CC[C@H]1C2 [816 (7)] | – | – | Tryp AVG EC1.5 (μM) [3]: A (A (EC1.5<1 μM))
11 | O=C(Nc1cccc(-c2cnco2)c1)N1c2nc(-c3cccc(C(F)(F)F)c3)ccc2N2C[C@@H](O)[C@H]1C2 [Example 665] | – | – | Tryp AVG EC1.5 (μM) [3]: A (A (EC1.5<1 μM))
12 | O=C(Nc1ccnc(OC[C@@H](O)CO)c1)N1c2nc(-c3cccc(C(F)(F)F)c3)ccc2N2CC[C@H]1C2 [(9S)-N-{2-[(2S)-2,3-dihydroxypropoxy]pyridin-4-yl}-5-[3-(trifluoromethyl)phenyl]-1,6,8-triazatricyclo[7.2.1.0 {2,7}]dodeca-2,4,6-triene-8-carboxamide] | A (A (EC1.5<1 μM)) | > 150 | –
13 | O=C(Nc1cnccn1)N1c2nc(-c3cncc(F)c3)ccc2N2CCC[C@H]1C2 [Example 432] | – | – | Tryp AVG EC1.5 (μM) [4]: B (B (EC1.5 1-25 μM))
14 | O=C(Nc1cnccn1)N1c2cc(N3CCCC(C(F)(F)F)C3)ccc2N2CCC[C@H]1C2 (stereo partly drawn) | A (A (EC1.5<1 μM)) | > 150 | –
15 | O=C(Nc1cnccn1)N1c2nc(-c3cnn(C4CC4)c3)ccc2N2CC[C@H]1C2 [(9S)-5-(1-cyclopropyl-1H-pyrazol-4-yl)-N-(pyrazin-2-yl)-1,6,8-triazatricyclo[7.2.1.0 {2,7}]dodeca-2(7),3,5-triene-8-carboxamide] | A (A (EC1.5<1 μM)) | > 150 | –
16 | O=C(Nc1ccccn1)N1c2nc(-c3cccnc3)ccc2N2CCC[C@H]1C2 [Example 441] | – | – | Tryp AVG EC1.5 (μM) [4]: B (B (EC1.5 1-25 μM))
17 | Cc1cnc2c(NC(=O)N3c4nc(-c5cccc(C(F)(F)F)c5)ccc4N4CC[C@H]3C4)cccc2n1 [76 (8)] | – | – | Tryp AVG EC1.5 (μM) [6]: A (A (EC1.5<1 μM))
18 | O=C(Nc1cccc(-c2cnco2)c1)N1c2nc(-c3cccc(C(F)(F)F)c3)ccc2N2CC[C@H]1C2 [68 (1)] | – | – | Tryp AVG EC1.5 (μM) [6]: A (A (EC1.5<1 μM))
19 | O=C(Nc1cccc(-c2ccc(C(F)(F)F)cn2)c1)N1c2nc(-c3cccc(C(F)(F)F)c3)ccc2N2CC[C@H]1C2 [Example 618] | – | – | Tryp AVG EC1.5 (μM) [4]: B (B (EC1.5 1-25 μM))
20 | N#Cc1ccc2c(n1)N(C(=O)Nc1cnccn1)[C@H]1CCN2C1 [(9S)-5-cyano-N-(pyrazin-2-yl)-1,6,8-triazatricyclo[7.2.1.0 {2,7}]dodeca-2(7),3,5-triene-8-carboxamide] | C (C (EC1.5>25 μM)) | < 150 | –
21 | Cc1cccnc1NC(=O)N1c2nc(-c3cccc(Cl)c3)ccc2N2CC[C@H]1C2 [Example 106] | – | – | Tryp AVG EC1.5 (μM) [6]: C (C (EC1.5>25 μM))
22 | O=C(Nc1ccc(F)cn1)N1c2nc(N3CCCC(C(F)(F)F)C3)ccc2N2CCC[C@H]1C2 (stereo partly drawn) [Example 359] | – | – | Tryp AVG EC1.5 (μM) [1]: A (A (EC1.5<1 μM))
23 | Cc1nn(C)cc1NC(=O)N1c2nc(-c3cccc(C(F)(F)F)c3)ccc2N2CC[C@H]1C2 [Example 92] | – | – | Tryp AVG EC1.5 (μM) [6]: B (B (EC1.5 1-25 μM))
24 | Cc1nn(C)c(C)c1-c1ccc2c(n1)N(C(=O)Nc1cccnc1)[C@H]1CCN2C1 [Example 486] | – | – | Tryp AVG EC1.5 (μM) [4]: C (C (EC1.5>25 μM))
25 | O=C(Nc1ccccn1)N1c2nc(-c3ccc(-c4nnn[nH]4)cc3)ccc2N2CC[C@H]1C2 [Example 347] | – | – | Tryp AVG EC1.5 (μM) [1]: A (A (EC1.5<1 μM))
26 | O=C(Nc1ccc(F)cn1)N1c2nc(-c3ccnc(N4CC[C@@H](F)C4)c3)ccc2N2CC[C@H]1C2 [Example 474] | – | – | Tryp AVG EC1.5 (μM) [4]: A (A (EC1.5<1 μM))
27 | O=C(Nc1cncc(OC[C@H](O)CO)n1)N1c2nc(-c3cccc(C(F)(F)F)c3)ccc2N2CC[C@H]1C2 [(9S)-N-{6-[(2R)-2,3-dihydroxypropoxy]pyrazin-2-yl}-5-[3-(trifluoromethyl)phenyl]-1,6,8-triazatricyclo[7.2.1.0 {2,7}]dodeca-2(7),3,5-triene-8-carboxamide] | A (A (EC1.5<1 μM)) | > 150 | –
28 | O=C(Nc1cnccn1)N1c2nc(N3CCC[C@H](C(F)(F)F)C3)ccc2N2CCC[C@H]1C2 [(9S)-N-(pyrazin-2-yl)-5-[(3S)-3-(trifluoromethyl)piperidin-1-yl]-1,6,8-triazatricyclo[7.3.1.0 {2,7}]trideca-2(7),3,5-triene-8-carboxamide] | A (A (EC1.5<1 μM)) | > 150 | –
29 | N#Cc1cccc(-c2ccc3c(n2)N(C(=O)Nc2cccnn2)[C@H]2CCCN3C2)c1 [Example 381] | – | – | Tryp AVG EC1.5 (μM) [1]: B (B (EC1.5 1-25 μM))
30 | CCOc1cncc(NC(=O)N2c3nc(-c4ccnc(C)c4)ccc3N3CC[C@H]2C3)n1 [(9S)-N-(6-ethoxypyrazin-2-yl)-5-(2-methylpyridin-4-yl)-1,6,8-triazatricyclo[7.2.1.0 {2,7}]dodeca-2(7),3,5-triene-8-carboxamide] | A (A (EC1.5<1 μM)) | > 150 | –

Further lines, with some results ahead:

Row | TRP Activity (EC1.5) (Trp peptide assay) | Emax [2] [%] | SMILES | further results
31 | B (B (EC1.5 1-25 μM)) | > 150 | CCOc1cc(-c2ccc3c(n2)N(C(=O)Nc2cnccn2)[C@H]2CCN3C2)ccn1 [(9S)-5-(2-ethoxypyridin-4-yl)-N-(pyrazin-2-yl)-1,6,8-triazatricyclo[7.2.1.0 {2,7}]dodeca-2(7),3,5-triene-8-carboxamide] | –
32 | A (A (EC1.5<1 μM)) | > 150 | Cc1cc(-c2ccc3c(n2)N(C(=O)Nc2ccc4[nH]ncc4n2)[C@H]2CCN3C2)ccn1 [(9S)-5-(2-methylpyridin-4-yl)-N-{1H-pyrazolo[4,3-b]pyridin-5-yl}-1,6,8-triazatricyclo[7.2.1.0 {2,7}]dodeca-2(7),3,5-triene-8-carboxamide] | –
33 | B (B (EC1.5 1-25 μM)) | > 150 | Cc1cncc(-c2ccc3c(n2)N(C(=O)Nc2cnccn2)[C@H]2CCN3C2)c1 [(9S)-5-(5-methylpyridin-3-yl)-N-(pyrazin-2-yl)-1,6,8-triazatricyclo[7.2.1.0 {2,7}]dodeca-2(7),3,5-triene-8-carboxamide] | –
34 | B (B (EC1.5 1-25 μM)) | > 150 | Cc1cc(-c2ccc3c(n2)N(C(=O)Nc2cnccn2)[C@H]2CCN3C2)cnc1C#N [(9S)-5-(6-cyano-5-methylpyridin-3-yl)-N-(pyrazin-2-yl)-1,6,8-triazatricyclo[7.2.1.0 {2,7}]dodeca-2(7),3,5-triene-8-carboxamide] | –
35 | C (C (EC1.5>25 μM)) | < 150 | Cc1cc(-c2ccc3c(n2)N(C(=O)N[C@@H](C)c2ccccn2)[C@H]2CCN3C2)ccn1 [(9S)-5-(2-methylpyridin-4-yl)-N-[(1S)-1-(pyridin-2-yl)ethyl]-1,6,8-triazatricyclo[7.2.1.0 {2,7}]dodeca-2,4,6-triene-8-carboxamide] | –
36 | A (A (EC1.5<1 μM)) | > 150 | Cc1cc(-c2ccc3c(n2)N(C(=O)Nc2cc4cn[nH]c4cn2)[C@H]2CCN3C2)ccn1 [(9S)-5-(2-methylpyridin-4-yl)-N-{1H-pyrazolo[3,4-c]pyridin-5-yl}-1,6,8-triazatricyclo[7.2.1.0 {2,7}]dodeca-2(7),3,5-triene-8-carboxamide] | –
